Read-outs that look alike come from different tables or passages of the source. Marks after values point to notes of the source that are not given here.
Columns and labels:
[1] = Trolox Equivalent Antioxidant Capacity assay (TEAC); details: n = 3; for TEAC IC50 (95% confidence limits): pure compounds tested at the concentration naturally present within the EO, n.r. = IC50 not reached
Method: (§1) The antioxidant and anti-inflammatory properties of S. oleosum and its major bioactive compounds were evaluated using different in vitro assays based on different mechanisms and reaction environments according to Smeriglio et al.. Results were expressed as the concentration required to inhibit 50% of the oxidative or inflammatory activity (IC50, µg/mL), with corresponding 95% confidence limits (C.L.) calculated using the Litchfield and Wilcoxon method with PHARM/PCS software (version 4; Consulting, Wynnewood, PA, USA).
To generate the 2,2′-azino-bis (3-ethylbenzothiazoline-6-sulfonic acid) (ABTS) radical cation solution, ABTS^+ (1.7 mM) was incubated with potassium persulfate (4.3 mM) in a 1:5 (v/v) ratio in the dark at room temperature (RT) for 12 h. The resulting solution was diluted to achieve an absorbance of 0.7 ± 0.02 at 734 nm. For the assay, 10 µL of either EO (ranging from 0.313 to 5 mg/mL), its main bioactive compounds (0.096–1.54 mg/mL, 0.084–1.34 mg/mL, 0.033–0.535 mg/mL, and 0.031–0.493 mg/mL for terpinolene, β-pinene, α-pinene, and γ-terpinene) or Trolox (0.625–10 µg/mL) was added to 200 µL of the ABTS solution and incubated at RT for 6 min. The absorbance at 734 nm was measured using a Multiskan™ GO UV-Vis microplate reader (Thermo Scientific, Waltham, MA, USA).

[2] = Ferric Reducing Antioxidant Power assay (FRAP); details: n = 3; for FRAP IC50 (95% confidence limits): pure compounds tested at the concentration naturally present within the EO, n.r. = IC50 not reached
Method: as §1
In this assay, 10 µL of EO (ranging from 0.313 to 5 mg/mL), its main bioactive compounds (0.096–1.54 mg/mL, 0.084–1.34 mg/mL, 0.033–0.535 mg/mL, and 0.031–0.493 mg/mL for terpinolene, β-pinene, α-pinene, and γ-terpinene) or Trolox (1.25–10 µg/mL) was mixed with 200 µL of FRAP reagent, pre-incubated at 37 °C. The reagent consisted of 10 mM 2,4,6-Tris (2-pyridyl)-s-triazine (TPTZ) in 40 mM HCl, 20 mM FeCl3·6H2O, and 300 mM acetate buffer (pH 3.6). The mixture was incubated for 4 min at RT in the dark before measuring absorbance at 593 nm with the same microplate reader used in Section TEAC Assay.

[3] = Oxygen Radical Absorbance Capacity assay (ORAC); details: n = 3; for ORAC IC50 (95% confidence limits): pure compounds tested at the concentration naturally present within the EO, n.r. = IC50 not reached
Method: as §1
ORAC activity was evaluated by combining 20 µL EO (ranging from 0.003 to 0.05 mg/mL), its main bioactive compounds (0.0010–0.0154 mg/mL, 0.0008–0.0134 mg/mL, 0.0003–0.0053 mg/mL, and […] for terpinolene, β-pinene, α-pinene, and γ-terpinene) or Trolox (0.25–2 µg/mL) with 120 µL of fluorescein solution (117 nM). After a 15-min pre-incubation at 37 °C, 60 µL of freshly prepared 2,2′-azobis (2-amidinopropane) dihydrochloride (AAPH) solution (40 mM) was added to initiate peroxyl radical formation. Fluorescence decay was monitored every 30 s for 90 min using excitation at 485 nm and emission at 520 nm on a FLUOstar Omega microplate reader (BMG LABTECH, Ortenberg, Germany).

[4] = β-Carotene Bleaching test (BCB); details: n = 3; for BCB IC50 (95% confidence limits): pure compounds tested at the concentration naturally present within the EO, n.r. = IC50 not reached
Method: as §1
In brief, 200 µL of EO (0.094–1.5 mg/mL), its main bioactive compounds (0.0289–0.4619 mg/mL, 0.0251–0.4019 mg/mL, 0.010–0.1604 mg/mL, and 0.0092–0.1479 mg/mL for terpinolene, β-pinene, α-pinene, and γ-terpinene), butylated hydroxytoluene (BHT, 1 mg/mL), or blank (0.1% DMSO) was added to 5 mL of β-carotene emulsion, prepared from 250 µL of β-carotene in ethyl acetate (1 mg/mL), 4 µL linoleic acid, and 40 µL Tween-40. An emulsion lacking β-carotene served as negative control. The mixtures were incubated at 50 °C for 2 h, and absorbance at 470 nm was measured at 20 min intervals using the same instrument as in Section TEAC Assay.

[5] = Iron-Chelating Activity assay (ICA); details: n = 3; for ICA IC50 (95% confidence limits): pure compounds tested at the concentration naturally present within the EO, n.r. = IC50 not reached
Method: (§2) The antioxidant and anti-inflammatory properties of S. oleosum and its major bioactive compounds were evaluated using different in vitro assays based on different mechanisms and reaction environments according to Smeriglio et al..
After 5 min at RT, 50 µL of ferrozine solution (5 mM) and deionized water were added to bring the total volume to 1.5 mL.

BSA = BSA (Bos taurus, UniProt P02769); assay: Inhibition of protein denaturation (ADA); assay type: biochemical; details: for ADA IC50 (95% confidence limits): pure compounds tested at the concentration naturally present within the EO, n = 3, n.r. = IC50 not reached
trypsin = target: T1, trypsin (Bos taurus, UniProt P00760); assay: Inhibition of protease activity (PIA); assay type: biochemical; details: pure compounds tested at the concentration naturally present within the EO, n = 3, n.r. = IC50 not reached
T1 sequence (P00760 24-246): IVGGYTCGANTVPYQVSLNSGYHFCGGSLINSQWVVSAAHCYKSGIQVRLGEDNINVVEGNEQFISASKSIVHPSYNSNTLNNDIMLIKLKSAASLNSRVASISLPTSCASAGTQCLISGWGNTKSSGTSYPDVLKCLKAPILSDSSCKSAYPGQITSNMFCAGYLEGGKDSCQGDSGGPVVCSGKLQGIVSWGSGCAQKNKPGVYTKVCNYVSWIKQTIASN
Method: as §2
After a 20 min incubation at 37 °C, the reaction was halted with 400 µL of 2 M perchloric acid, followed by centrifugation at 3500 × g for 10 min.

[6] = target: butyrylcholinesterase (BChE) (Equus caballus, UniProt P81908); assay: Cholinesterase inhibition, BChE; assay type: biochemical; details: pure compounds tested at the concentration naturally present in the EO, three experiments, n.r. = IC50 not reached
Method: (§3) The cholinesterase inhibitory activity was evaluated according to the method described by Zheng and co-workers.

[7] = target: acetylcholinesterase (AChE) (Electrophorus electricus, UniProt O42275); details: pure compounds tested at the concentration naturally present in the EO, three experiments, n.r. = IC50 not reached
Method: as §3

Chain of butyrylcholinesterase (BChE) (P81908 whole entry): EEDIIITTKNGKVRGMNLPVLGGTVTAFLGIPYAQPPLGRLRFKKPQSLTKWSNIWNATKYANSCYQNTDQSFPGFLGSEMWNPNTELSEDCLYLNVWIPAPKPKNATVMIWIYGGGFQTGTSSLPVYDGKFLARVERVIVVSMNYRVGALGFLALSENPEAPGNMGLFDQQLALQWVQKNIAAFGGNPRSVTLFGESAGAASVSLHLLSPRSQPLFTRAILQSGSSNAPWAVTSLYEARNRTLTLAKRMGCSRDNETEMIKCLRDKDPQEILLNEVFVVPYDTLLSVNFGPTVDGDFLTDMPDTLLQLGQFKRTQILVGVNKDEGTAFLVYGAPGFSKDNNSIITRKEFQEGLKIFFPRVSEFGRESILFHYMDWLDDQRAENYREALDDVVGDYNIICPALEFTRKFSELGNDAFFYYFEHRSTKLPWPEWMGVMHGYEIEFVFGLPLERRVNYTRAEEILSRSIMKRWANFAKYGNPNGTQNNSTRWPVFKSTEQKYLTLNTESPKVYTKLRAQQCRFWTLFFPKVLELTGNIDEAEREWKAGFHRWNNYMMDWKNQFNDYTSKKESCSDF
Chain of BSA (P02769 25-607): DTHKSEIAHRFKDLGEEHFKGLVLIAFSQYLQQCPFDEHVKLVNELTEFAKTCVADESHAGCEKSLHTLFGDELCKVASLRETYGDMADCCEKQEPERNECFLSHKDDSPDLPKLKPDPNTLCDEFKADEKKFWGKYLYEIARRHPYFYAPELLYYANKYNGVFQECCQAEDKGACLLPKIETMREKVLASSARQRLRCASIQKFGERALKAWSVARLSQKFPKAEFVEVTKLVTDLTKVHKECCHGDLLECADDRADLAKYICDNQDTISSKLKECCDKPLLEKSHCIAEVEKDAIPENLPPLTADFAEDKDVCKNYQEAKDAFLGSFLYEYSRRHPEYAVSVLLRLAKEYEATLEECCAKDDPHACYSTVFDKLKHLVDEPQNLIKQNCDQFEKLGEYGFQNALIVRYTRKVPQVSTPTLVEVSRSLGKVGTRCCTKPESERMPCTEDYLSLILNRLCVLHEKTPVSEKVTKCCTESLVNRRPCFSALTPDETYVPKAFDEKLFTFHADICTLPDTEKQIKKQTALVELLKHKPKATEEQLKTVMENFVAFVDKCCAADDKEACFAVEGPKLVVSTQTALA
Chain of acetylcholinesterase (AChE) (O42275 24-633): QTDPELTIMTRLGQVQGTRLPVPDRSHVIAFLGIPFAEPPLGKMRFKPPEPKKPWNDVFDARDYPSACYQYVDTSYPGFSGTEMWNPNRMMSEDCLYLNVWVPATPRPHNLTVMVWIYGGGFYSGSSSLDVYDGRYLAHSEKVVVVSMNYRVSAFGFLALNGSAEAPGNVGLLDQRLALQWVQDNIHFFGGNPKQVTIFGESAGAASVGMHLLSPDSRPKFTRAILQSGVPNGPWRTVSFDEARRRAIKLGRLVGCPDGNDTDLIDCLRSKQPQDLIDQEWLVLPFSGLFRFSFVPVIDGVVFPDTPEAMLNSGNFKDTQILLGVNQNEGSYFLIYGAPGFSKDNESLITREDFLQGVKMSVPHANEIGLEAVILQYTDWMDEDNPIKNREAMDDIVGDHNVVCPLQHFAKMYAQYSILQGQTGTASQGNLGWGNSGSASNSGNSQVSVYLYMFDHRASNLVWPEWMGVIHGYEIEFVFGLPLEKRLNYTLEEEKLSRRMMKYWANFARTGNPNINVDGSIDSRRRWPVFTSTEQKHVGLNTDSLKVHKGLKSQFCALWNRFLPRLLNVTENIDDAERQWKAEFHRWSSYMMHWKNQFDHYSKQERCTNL

SMILES	TEAC IC50 (95% confidence limits) [1]	FRAP IC50 (95% confidence limits) [2]	ORAC IC50 (95% confidence limits) [3]	BCB IC50 (95% confidence limits) [4]	ICA IC50 (95% confidence limits) [5]	IC50 (BSA)	PIA IC50 (95% confidence limits) (trypsin)	BChE IC50 ± standard deviation [6]	other results
CC1=CCC(=C(C)C)CC1 [Terpinolene]	n.r.	n.r.	0.01 (0.00–0.04) mg/mL	0.21 (0.10–0.45) mg/mL	n.r.	2350 µM	did not reach the IC50 threshold	–	TEAC IC50 (95% confidence limits) ([1]; listed as terpinolene): neither compound reached 50% inhibition; FRAP IC50 (95% confidence limits) ([2]; listed as terpinolene): neither compound reached 50% inhibition; ICA IC50 (95% confidence limits) ([5]; listed as terpinolene): no appreciable activity
O=C(O)CN(CCN(CC(=O)O)CC(=O)O)CC(=O)O [EDTA]	–	–	–	–	–	–	–	–	ICA IC50 (95% confidence limits), reference standard ([5]; RS EDTA): 5.72 (2.32–87.13) *** µg/mL
Cc1c(C)c2c(c(C)c1O)CCC(C)(C(=O)O)O2 (centres unmarked) [trolox]	–	–	–	–	–	–	–	–	TEAC IC50 (95% confidence limits), reference standard ([1]; RS trolox): 3.78 (1.48–9.67) *** µg/mL; FRAP IC50 (95% confidence limits), reference standard ([2]; RS trolox): 3.72 (1.60–8.66) *** µg/mL; ORAC IC50 (95% confidence limits), reference standard ([3]; RS trolox): 0.68 (0.22–82.17) *** µg/mL
CC1=CCC2CC1C2(C)C (stereo not drawn) [α-Pinene]	n.r. ^b	n.r.	n.r.	inactive and n.r.	–	–	–	n.r.	ADA IC50 (95% confidence limits) (BSA): n.r.; ADA IC50 (95% confidence limits) (BSA; listed as α-pinene): did not reach 50% inhibition; BChE IC50 ± standard deviation ([6]; listed as α-pinene): failed to reach the IC50 threshold
Cc1cc(C(C)(C)C)c(O)c(C(C)(C)C)c1 [BHT, butylated hydroxytoluene]	–	–	–	–	–	–	–	–	BCB IC50 (95% confidence limits), reference standard ([4]; RS BHT): 0.35 (0.17–80.58) *** µg/mL
CC1=CCC(C(C)C)=CC1 [γ-Terpinene]	n.r.	n.r.	n.r.	0.02 (0.02–0.03) mg/mL	no appreciable activity and n.r.	807 µM	n.r.	n.r.	PIA IC50 (95% confidence limits) (trypsin; listed as γ-terpinene): did not reach the IC50 threshold; AChE IC50 ± standard deviation [7]: n.r.; AChE IC50 ± standard deviation ([7]; listed as γ-terpinene): did not achieve 50% inhibition; BChE IC50 ± standard deviation ([6]; listed as γ-terpinene): failed to reach the IC50 threshold
C=C1CCC2CC1C2(C)C (stereo not drawn) [β-Pinene]	neither compound reached 50% inhibition and n.r.	neither compound reached 50% inhibition and n.r.	n.r.	n.r.	0.03 (0.01–0.13) mg/mL	2640 µM	did not reach the IC50 threshold and n.r.	n.r.	BCB IC50 (95% confidence limits) ([4]; listed as β-pinene): inactive; AChE IC50 ± standard deviation [7]: n.r.; AChE IC50 ± standard deviation ([7]; listed as β-pinene): did not achieve 50% inhibition; BChE IC50 ± standard deviation ([6]; listed as β-pinene): failed to reach the IC50 threshold

Reference: paper PMC12389591, “Syzygium oleosum (F.Muell.) B.Hyland (Myrtaceae), an Unexplored Australian Species: Anatomical and Micromorphological Study of Leafy Twigs, and Characterization and Biological Activity of Their Essential Oil” (Plants, 2025)
